Test results reported in patent publication US20080114007A1 (priority 2006, published 2008).

Biological target: CSF-1R (Homo sapiens, UniProt P07333)
Assay: Peptide (non-phosphorylated) assay, fluorescence polarization competition immunoassay
Type: biochemical
Details: 0.7 nM CSF-1R, 308 μM SYEGNSYTFIDPTQ peptide, 1 mM ATP, 80 min; mean of at least three determinations; read-out: c-fms Peptide IC50
Outline: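 Read-out is fluorescence polarization: after EDTA quench, anti-phosphotyrosine antibody plus PTK green tracer compete with the phosphorylated peptide for 30 min. The CSF-1R reaction itself ran 80 min at room temperature after ATP addition. DMSO (4%) wells served as controls, positive controls pre-treated with EDTA.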

CSF-1R, sequence (P07333 20-972): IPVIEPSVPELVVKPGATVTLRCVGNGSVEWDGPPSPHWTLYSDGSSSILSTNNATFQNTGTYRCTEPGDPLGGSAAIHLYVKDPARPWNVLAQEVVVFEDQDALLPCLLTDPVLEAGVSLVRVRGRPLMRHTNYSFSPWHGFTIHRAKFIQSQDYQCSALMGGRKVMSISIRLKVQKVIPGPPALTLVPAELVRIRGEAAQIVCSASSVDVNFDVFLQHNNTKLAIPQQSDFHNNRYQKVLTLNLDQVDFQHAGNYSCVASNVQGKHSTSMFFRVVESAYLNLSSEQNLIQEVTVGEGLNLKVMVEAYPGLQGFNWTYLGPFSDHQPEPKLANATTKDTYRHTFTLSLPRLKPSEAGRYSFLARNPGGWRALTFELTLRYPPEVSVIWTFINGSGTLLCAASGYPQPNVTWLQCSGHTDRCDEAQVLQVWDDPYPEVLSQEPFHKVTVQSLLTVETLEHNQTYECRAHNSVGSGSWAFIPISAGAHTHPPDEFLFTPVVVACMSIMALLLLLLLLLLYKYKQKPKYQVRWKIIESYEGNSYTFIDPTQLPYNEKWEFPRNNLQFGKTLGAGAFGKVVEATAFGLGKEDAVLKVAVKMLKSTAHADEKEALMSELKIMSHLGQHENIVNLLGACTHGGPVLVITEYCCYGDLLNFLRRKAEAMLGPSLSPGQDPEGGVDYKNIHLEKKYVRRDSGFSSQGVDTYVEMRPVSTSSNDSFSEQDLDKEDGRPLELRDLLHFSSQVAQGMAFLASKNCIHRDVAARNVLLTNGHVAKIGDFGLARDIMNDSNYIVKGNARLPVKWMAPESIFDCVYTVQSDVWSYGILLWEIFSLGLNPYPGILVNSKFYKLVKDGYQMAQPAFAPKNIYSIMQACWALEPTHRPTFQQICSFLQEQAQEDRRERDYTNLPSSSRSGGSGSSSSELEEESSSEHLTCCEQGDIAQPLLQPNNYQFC

IC50 [nM]	SMILES
1.4	CONC(=O)c1cn(-c2ccc3c(c2)CCC3)c2nc(Nc3cccc(C(=O)NCCN(C)C)c3)ncc2c1=O [Cpd 199, 2-[3-(2-dimethylamino-ethylcarbamoyl)-phenylamino]-8-indan-5-yl-5-oxo-5,8-dihydro-pyrido[2,3-d]pyrimidine-6-carboxylic acid methoxy-amide]
0.55	CONC(=O)c1cn(-c2ccc3c(c2)CCC3)c2nc(Nc3ccc(CCN4CCC[C@@H]4CO)cc3)ncc2c1=O [Cpd 101, (R)-2-{4-[2-(2-hydroxymethyl-pyrrolidin-1-yl)-ethyl]-phenylamino}-8-indan-5-yl-5-oxo-5,8-dihydro-pyrido[2,3-d]pyrimidine-6-carboxylic acid methoxy-amide]
1.2	CONC(=O)c1cn(-c2ccc3c(c2)CCC3)c2nc(Nc3ccc(CCN4CCN(C(C)=O)CC4)cc3)ncc2c1=O [Cpd 145, 2-{4-[2-(4-acetyl-piperazin-1-yl)-ethyl]-phenylamino}-8-indan-5-yl-5-oxo-5,8-dihydro-pyrido[2,3-d]pyrimidine-6-carboxylic acid methoxy-amide]
14	CCc1ccc(-n2cc(C(=O)NOC)c(=O)c3cnc(Nc4ccc(-c5ccc(N(C)C)cc5)cc4)nc32)cc1 [Cpd 306, 2-(4′-dimethylamino-biphenyl-4-ylamino)-8-(4-ethyl-phenyl)-5-oxo-5,8-dihydro-pyrido[2,3-d]pyrimidine-6-carboxylic acid methoxy-amide]
0.5	CONC(=O)c1cn(-c2ccc3c(c2)CCC3)c2nc(Nc3ccc(C4C[C@@]5(C)O[C@@](C)(C4)[C@H]4OC(C)(C)O[C@H]45)cc3)ncc2c1=O (stereo partly drawn) [Cpd 315, 8-indan-5-yl-5-oxo-2-[4-(2aR,1R,7S,6aS)-(1,4,4,7-tetramethyl-3,5,11-trioxa-tricyclo[5.3.1.0^2,6]undec-9-yl)-phenylamino]-5,8-dihydro-pyrido[2,3-d]pyrimidine-6-carboxylic acid methoxy-amide]
0.71	CNCCS(=O)(=O)c1cccc(Nc2ncc3c(=O)c(C(=O)NOC)cn(-c4ccc5c(c4)CCC5)c3n2)c1 [Cpd 231, 8-indan-5-yl-2-[3-(2-methylamino-ethanesulfonyl)-phenylamino]-5-oxo-5,8-dihydro-pyrido[2,3-d]pyrimidine-6-carboxylic acid methoxy-amide]
0.65	CONC(=O)c1cn(-c2ccc3c(c2)CCC3)c2nc(Nc3cccc(CCN4CCCC4)c3)ncc2c1=O [Cpd 194, 8-indan-5-yl-5-oxo-2-[3-(2-pyrrolidin-1-yl-ethyl)-phenylamino]-5,8-dihydro-pyrido[2,3-d]pyrimidine-6-carboxylic acid methoxy-amide]
1.7	CONC(=O)c1cn(-c2ccc3c(c2)CCC3)c2nc(Nc3cccc(N4CCN(C(C)=O)CC4)c3)ncc2c1=O [Cpd 196, 2-[3-(4-acetyl-piperazin-1-yl)-phenylamino]-8-indan-5-yl-5-oxo-5,8-dihydro pyrido[2,3-d]pyrimidine-6-carboxylic acid methoxy-amide]
1.2	CC(C)ONC(=O)c1cn(-c2ccc3c(c2)CCC3)c2nc(Nc3ccc(CCN4CCCC4)cc3)ncc2c1=O [Cpd 133, 8-indan-5-yl-5-oxo-2-[4-(2-pyrrolidin-1-yl-ethyl)-phenylamino]-5,8-dihydro-pyrido[2,3-d]pyrimidine-6-carboxylic acid isopropoxy-amide]
0.3	CCc1ccc(-n2cc(C(=O)NOC)c(=O)c3cnc(Nc4ccc(C5CCN(CCOC)CC5)cc4)nc32)cc1 [Cpd 207, 8-(4-ethyl-phenyl)-2-{4-[1-(2-methoxy-ethyl)-piperidin-4-yl]-phenylamino}-5-oxo-5,8-dihydro-pyrido[2,3-d]pyrimidine-6-carboxylic acid methoxy-amide]
1	CONC(=O)c1cn(-c2ccc(OC(F)(F)F)cc2)c2nc(Nc3ccc(CCN4CCN(C)CC4)cc3)ncc2c1=O [Cpd 175, 2-{4-[2-(4-methylpiperazin-1-yl)-ethyl]-phenylamino}-5-oxo-8-(4-trifluoromethoxy-phenyl)-5,8-dihydropyrido[2,3-d]pyrimidine-6-carboxylic acid methoxy-amide]
0.6	CCc1ccc(-n2cc(C(=O)NOC)c(=O)c3cnc(Nc4ccc(C5CCN(CCCO)CC5)cc4)nc32)cc1 [Cpd 185, 8-(4-ethyl-phenyl)-2-{4-[1-(3-hydroxy-propyl)-piperidin-4-yl]-phenylamino}-5-oxo-5,8-dihydro-pyrido[2,3-d]pyrimidine-6-carboxylic acid methoxy-amide]
0.94	COCCOc1ccc(Nc2ncc3c(=O)c(C(=O)NOC)cn(-c4ccc5c(c4)CCC5)c3n2)cc1 [Cpd 258, 8-indan-5-yl-2-[4-(2-methoxy-ethoxy)-phenylamino]-5-oxo-5,8-dihydro-pyrido[2,3-d]pyrimidine-6-carboxylic acid methoxy-amide]
1.4	CONC(=O)c1cn(-c2ccc3c(c2)CCC3)c2nc(Nc3cccc(C4CCN(C(C)=O)CC4)c3)ncc2c1=O [Cpd 197, 2-[3-(1-acetyl-piperidin-4-yl)-phenylamino]-8-indan-5-yl-5-oxo-5,8-dihydro-pyrido[2,3-d]pyrimidine-6-carboxylic acid methoxy-amide]
0.5	CONC(=O)c1cn(-c2ccc3c(c2)CCC3)c2nc(Nc3cccc(N4CCN(C)CC4)c3)ncc2c1=O [Cpd 324, 8-indan-5-yl-2-[3-(4-methyl-piperazin-1-yl)-phenylamino]-5-oxo-5,8-dihydro-pyrido[2,3-d]pyrimidine-6-carboxylic acid methoxy-amide]
1.5	CCc1ccc(-n2cc(C(=O)NOC)c(=O)c3cnc(Nc4ccc(CCN5CC(F)(F)C5)cc4)nc32)cc1 [Cpd 269, 2-{4-[2-(3,3-difluoro-azetidin-1-yl)-ethyl]-phenylamino}-8-(4-ethyl-phenyl)-5-oxo-5,8-dihydro-pyrido[2,3-d]pyrimidine-6-carboxylic acid methoxy-amide]

The remaining lines, values behind:

SMILES	IC50 [nM]
CCONC(=O)c1cn(C2CCCCC2)c2nc(Nc3ccc(C4CCN(C(C)=O)CC4)cc3)ncc2c1=O [Cpd 29, 2-[4-(1-acetyl-piperidin-4-yl)-phenylamino]-8-cyclohexyl-5-oxo-5,8-dihydro-pyrido[2,3-d]pyrimidine-6-carboxylic acid ethoxy-amide]	1
CONC(=O)c1cn(C2CCCC2)c2nc(Nc3ccc(CN4CCCC4=O)cc3)ncc2c1=O [Cpd 37, 8-cyclopentyl-5-oxo-2-[4-(2-oxo-pyrrolidin-1-ylmethyl)-phenylamino]-5,8-dihydro-pyrido[2,3-d]pyrimidine-6-carboxylic acid methoxy-amide]	1.5
CCc1ccc(-n2cc(C(=O)NOC)c(=O)c3cnc(Nc4ccc(C5CCN(CC(=O)O)CC5)cc4)nc32)cc1 [Cpd 94, (4-{4-[8-(4-ethyl-phenyl)-6-methoxycarbamoyl-5-oxo-5,8-dihydro-pyrido[2,3-d]pyrimidin-2-ylamino]-phenyl}-piperidin-1-yl)-acetic acid]	0.9
CCONC(=O)c1cn(-c2ccc(CC)cc2)c2nc(Nc3ccc(CCN4CCN(C)CC4)cc3)ncc2c1=O [Cpd 57, 8-(4-ethyl-phenyl)-2-{4-[2-(4-methyl-piperazin-1-yl)-ethyl]-phenylamino}-5-oxo-5,8-dihydro-pyrido[2,3-d]pyrimidine-6-carboxylic acid ethoxy-amide]	0.6
CCc1ccc(-n2cc(C(=O)NOC)c(=O)c3cnc(Nc4ccc(C5CCN(CCO)CC5)cc4)nc32)cc1 [Cpd 95, 8-(4-ethyl-phenyl)-2-{4-[1-(2-hydroxy-ethyl)-piperidin-4-yl]-phenylamino}-5-oxo-5,8-dihydro-pyrido[2,3-d]pyrimidine-6-carboxylic acid methoxy-amide]	1.8
CONC(=O)c1cn(-c2ccc3c(c2)CCC3)c2nc(Nc3cccc(C4(O)CCN(C)CC4)c3)ncc2c1=O [Cpd 272, 2-[3-(4-hydroxy-1-methyl-piperidin-4-yl)-phenylamino]-8-indan-5-yl-5-oxo-5,8-dihydro-pyrido[2,3-d]pyrimidine-6-carboxylic acid methoxy-amide]	0.88
CCc1ccc(-n2cc(C(=O)NOC)c(=O)c3cnc(Nc4ccc(CCN5CCN(C)CC5)cc4)nc32)cc1 [Cpd 56, 8-(4-ethyl-phenyl)-2-{4-[2-(4-methyl-piperazin-1-yl)-ethyl]-phenylamino}-5-oxo-5,8-dihydro-pyrido[2,3-d]pyrimidine-6-carboxylic acid methoxy-amide]	1.1
NCCNC(=O)c1cn(C2CCCC2)c2nc(Nc3ccc(CCN4CCCC4)cc3)ncc2c1=O [Cpd 44, 8-cyclopentyl-5-oxo-2-[4-(2-pyrrolidin-1-yl-ethyl)-phenylamino]-5,8-dihydro-pyrido[2,3-d]pyrimidine-6-carboxylic acid (2-amino-ethyl)-amide]	110
CONC(=O)c1cn(-c2ccc(F)c(Cl)c2)c2nc(Nc3ccc(CCN4CCN(C)CC4)cc3)ncc2c1=O [Cpd 4, 8-(3-chloro-4-fluoro-phenyl)-2-{4-[2-(4-methyl-piperazin-1-yl)-ethyl]-phenylamino}-5-oxo-5,8-dihydro-pyrido[2,3-d]pyrimidine-6-carboxylic acid methoxy amide]	2.2
CONC(=O)c1cn(-c2ccc3c(c2)CCC3)c2nc(Nc3cccc(N4CCNCC4)c3)ncc2c1=O [Cpd 2, 8-indan-5-yl-5-oxo-2-(3-piperazin-1-yl-phenylamino)-5,8-dihydro-pyrido[2,3-d]pyrimidine-6-carboxylic acid methoxy-amide]	0.56
C#Cc1ccc(-n2cc(C(=O)NOC)c(=O)c3cnc(Nc4ccc(CCN5CCN(C)CC5)cc4)nc32)cc1 [Cpd 31, 8-(4-ethynyl-phenyl)-2-{4-[2-(4-methyl-piperazin-1-yl)-ethyl]-phenylamino}-5-oxo-5,8-dihydro-pyrido[2,3-d]pyrimidine-6-carboxylic acid methoxy-amide]	2.6
CCc1ccc(-n2cc(C(=O)NOC(C)C)c(=O)c3cnc(Nc4ccc(C5CCN(C(C)=O)CC5)cc4)nc32)cc1 [Cpd 59, 2-[4-(1-acetyl-piperidin-4-yl)-phenylamino]-8-(4-ethyl-phenyl)-5-oxo-5,8-dihydro-pyrido[2,3-d]pyrimidine-6-carboxylic acid isopropoxy-amide]	4.5
